Measured values published in publication PMC10974622, “Hybrid Peptide-Alkoxyamine Drugs: A Strategy for the Development of a New Family of Antiplasmodial Drugs” (Molecules, 2024).
Read-outs that look alike come from different tables or passages of the source. *1 amine or outer side, *2 acyl side, *3 side chain or, on linkers, in order; H or OH if unused. Where a SMILES comes first, the peptide text is derived from it. [ ]: non-standard residue; d: D form. The star is where a group is joined. Suc = O=C(CCC(=O)[*:2])[*:1]; Boc = CC(C)(C)OC(=O)*; OBn = c1ccc(CO*)cc1

How the values were obtained:
[1] = tested on: P. falciparum strain F32-ART (artemisinin-resistant); assay: microbe, parasite or virus in culture; type: cell-based, Plasmodium falciparum; details: for Selectivity Index CC50/IC50: cytotoxicity (Vero cells)/antiplasmodial activity (F32-ART) ratio
Excerpt: The antimalarial activity of peptide-alkoxyamine hybrids was first evaluated in the in vitro antiproliferative test (IC50) using the artemisinin-resistant strain F32-ART (Table 2, Table S1). The roles of the N-substitution of the alkoxyamine moiety (TEMPO- or DBNO-based, for example, A3L/A8L, line 1/line 10), of the configuration (L or D of the peptide, A3L/A3D, line 1/line 2), of the N-protection of the peptide (A3L/A4L or A5L, line 1/ lines 3 and 5) were examined. According to standard rules in the malaria field, only molecules having IC50 values below 1 μM were considered active.
The F32-ART (artemisinin-resistant) strain and the F32-TEM (artemisinin-sensitive strain) were cultured according to Trager and Jensen in RPMI 1640 medium (Fisher Scientific, Illkirch, France) supplemented with 5% human serum (Etablissement français du Sang, Toulouse, France) at 2% hematocrit with type O human blood (Etablissement français du Sang, Toulouse, France), 37 °C, and 5% CO2 in a humidified atmosphere.
(§1) IC50 values corresponding to 50% inhibition of P. falciparum growth were determined by SYBR Green assay, and the assessment of cytotoxicity was performed on Vero cells (cell line from the kidney of a normal adult African green monkey), as previously published. The selectivity index corresponded to the cytotoxicity/activity ratio.

[2] = tested on: Vero cells; details: cited from earlier work
[3] = in vitro; type: cell-based, African green monkey; details: Cytotoxicity CC50
Experimental: as §1

[4] = Kinetic analysis of alkoxyamine bond homolysis by EPR; type: physicochemical; details: Equation (2), A = 2.4 · 10^14 s^−1
Experimental: The kinetic homolysis for peptide-alkoxyamines reported in Table 1 was recorded in EPR using two solvents, tert-butylbenzene (t-BuPh) or an n-propanol:water (1:1, v:v) mixture. The growth of nitroxide was recorded in the presence of an alkyl radical scavenger, i.e., O2 here, to suppress the back reaction (kc in Scheme 4), as already reported.
Homolysis rate constants kd are given by Equation (1) ([nitroxide]∞ = [alkoxyamine]0 = 0.1 mM), and the subsequent activation energy values Ea are given by Equation (2), as follows:(1) lnnitroxide∞−nitroxidet/nitroxide∞=−kd·t (2) Ea=−RTlnkd/A

[5] = tested on: F32-ART parasites at the quiescent stage; assay: Quiescent-stage Survival Assay (QSA); type: cell-based, Plasmodium falciparum; details: 700 nM DHA, compound at 7 µM
Experimental: In this assay, parasites were exposed to dihydroartemisinin (DHA) alone to induce quiescence, prior the addition of the drug to be tested for 48 h, and then the parasite recrudescence was monitored over a maximum of 4 weeks. Activity against quiescent parasites was evidenced by a delay in recrudescence time over 6 days between the conditions “DHA 6 h / DHA 48 h” and “DHA 6 h/(DHA + molecule) 48 h”. Atovaquone was used as a positive control, and its activity against quiescent parasites was here confirmed, as expected, by an extended delay of 11 days in recrudescence time (Figure 5). By contrast, no activity of A8L and A3L against quiescent parasites was evidenced in the QSA, with similar recrudescence time between the conditions “DHA 6 h/DHA 48 h” and “DHA 6 h/(DHA + molecule) 48 h”. […] To understand this phenomenon, we explored the parasite response during treatment with these hybrid compounds.
The QSA was performed according to Reyser et al.. Briefly, ART-resistant ring-stage parasites at 3% parasitemia were exposed for 6 h to 700 nM of DHA (dihydroartemisinin) to induce quiescence or were exposed to no drugs (control condition). After that, the compound to be tested was added in both conditions […]. At the end of the treatment, the drugs were washed off with RPMI-1640, and parasites were replaced in drug-free conditions. Blood smears were performed to follow parasitemia until the day the cultures reached their starting parasitemia, defined as the recrudescence day. If after 30 days no parasite recrudescence was observed, then the data were censored. Data analysis was performed using Kaplan–Meier survival curves. Statistical significance was ascertained by using a log-rank (Mantel-Cox) test using GraphPad Prism 7 software (San Diego, CA, USA).

[6] = strain F32-ART, SYBR Green assay, mean ± SEM of 3 to 6 experiments, read-out: Antiplasmodial Activity IC50
[7] = Plasmodium falciparum, F32, read-out: Antiplasmodial Activity IC50, strain F32-ART, SYBR Green assay, mean ± SEM of 3 to 6 experiments
[8] = read-out: Antiplasmodial Activity IC50, strain F32-ART, SYBR Green assay, mean ± SEM of 3 to 6 experiments

SMILES	IC50 [1, 6]	CC50 [2]	CC50 ([3]; African green monkey)	other results
CCc1ccc(NC(=O)[C@H](Cc2ccccc2)NC(=O)[C@@H](NC(=O)[C@@H](N)Cc2ccccc2)C(C)C)cc1 [P22L]	> 10 µM	> 50 µM	–	–
CC(C)[C@H](NC(=O)[C@@H](N)Cc1ccccc1)C(=O)N[C@@H](Cc1ccccc1)C(=O)O [P11L] (H-Phe-Val-Phe-OH)	> 10 µM	> 50 µM	–	–
CC(ON1C(C)(C)CCCC1(C)C)c1ccccc1 (centres unmarked) [compound 4, reference compound]	–	–	–	IC50 [1, 7]: > 10 µM
CC(C)[C@@H](NC(=O)[C@@H](Cc1ccccc1)NC(=O)OC(C)(C)C)C(=O)N[C@H](Cc1ccccc1)C(=O)O [P7D] (Boc-[dF]-[dV]-[dF]-OH)	> 10 µM	–	> 50 µM	–
CC(C)[C@H](NC(=O)[C@H](Cc1ccccc1)NC(=O)CCC(=O)O)C(=O)N[C@@H](Cc1ccccc1)C(=O)O [P10L] (Suc-Phe-Val-Phe-OH)	> 50 µM	> 50 µM	–	–
CCc1ccc(NC(=O)[C@H](Cc2ccccc2)NC(=O)[C@@H](NC(=O)[C@H](Cc2ccccc2)NC(=O)CCC(=O)O)C(C)C)cc1 [P24L]	> 10 µM	> 50 µM	–	–
C[C@@H]1CC[C@H]2[C@@H](C)C(=O)O[C@@H]3O[C@@]4(C)CC[C@@H]1[C@]32OO4 [ART, Artemisinin, reference compound]	–	–	> 50 µM	IC50 [1, 7]: 0.031 ± 0.006 µM; Selectivity Index CC50/IC50 [1]: >1500
CC(ON(C(C)(C)C)C(C)(C)C)c1ccc(NC(=O)[C@@H](Cc2ccccc2)NC(=O)OC(C)(C)C)cc1 (some centres unmarked) [A9D]	–	–	–	activation energy Ea ([4]; in t-BuPh): 28.87 kcal/mol; activation energy Ea ([4]; in water/n-PrOH 1/1 v/v): 28.42 kcal/mol
CCc1ccc(NC(=O)[C@@H](Cc2ccccc2)NC(=O)[C@H](NC(=O)[C@H](N)Cc2ccccc2)C(C)C)cc1 [P22D]	–	–	–	CC50 [3]: 11 ± 1.6 µM
O=C1C(O)=C([C@H]2CC[C@H](c3ccc(Cl)cc3)CC2)C(=O)c2ccccc21 [Atovaquone, reference compound]	–	–	–	delay in recrudescence time between DHA 6 h/DHA 48 h and DHA 6 h/(DHA + molecule) 48 h [5]: 11 days
CC(C)[C@H](NC(=O)[C@H](Cc1ccccc1)NC(=O)OC(C)(C)C)C(=O)N[C@@H](Cc1ccccc1)C(=O)O [P7L, Boc-L-Phe-L-Val-L-Phe–OH] (Boc-Phe-Val-Phe-OH)	> 50 µM	> 50 µM	–	–
CC(C)[C@@H](NC(=O)[C@H](N)Cc1ccccc1)C(=O)N[C@H](Cc1ccccc1)C(=O)OCc1ccccc1 [P8D] (H-[dF]-[dV]-[dF]-OBn)	> 50 µM	–	> 50 µM	–
CC(C)[C@H](NC(=O)[C@@H](N)Cc1ccccc1)C(=O)N[C@@H](Cc1ccccc1)C(=O)OCc1ccccc1 [P8L] (H-Phe-Val-Phe-OBn)	> 50 µM	–	> 50 µM	–
CC(ON(C(C)(C)C)C(C)(C)C)c1ccc(NC(=O)[C@@H](Cc2ccccc2)NC(=O)[C@H](NC(=O)[C@@H](Cc2ccccc2)NC(=O)OC(C)(C)C)C(C)C)cc1 (some centres unmarked) [A8D]	–	–	> 50 µM	IC50 [1, 7]: 50 µM; activation energy Ea ([4]; in t-BuPh): 28.94 kcal/mol; activation energy Ea ([4]; in water/n-PrOH 1/1 v/v): 28.32 kcal/mol
CC(ON(C(C)(C)C)C(C)(C)C)c1ccc(NC(=O)[C@@H](Cc2ccccc2)NC(=O)[C@H](NC(=O)[C@H](N)Cc2ccccc2)C(C)C)cc1 (some centres unmarked) [AW230]	–	–	9 ± 1.2 µM	IC50 [1, 7]: 3.73 ± 0.26 µM
CC(C)[C@H](NC(=O)[C@H](Cc1ccccc1)NC(=O)OC(C)(C)C)C(=O)N[C@@H](Cc1ccccc1)C(=O)OCc1ccccc1 [P6L] (Boc-Phe-Val-Phe-OBn)	> 50 µM	–	> 50 µM	–
CC(C)[C@H](NC(=O)[C@@H](N)Cc1ccccc1)C(=O)N[C@@H](Cc1ccccc1)C(=O)O [P18L] (H-Phe-Val-Phe-OH)	> 5 µM	> 25 µM	–	–
CCc1ccc(NC(=O)[C@H](Cc2ccccc2)NC(=O)[C@@H](NC(=O)[C@H](Cc2ccccc2)NC(=O)CCC(=O)OCc2ccccc2)C(C)C)cc1 [P23L]	> 10 µM	> 50 µM	–	–
CC(C)[C@H](NC(=O)[C@H](Cc1ccccc1)NC(=O)CCC(=O)OCc1ccccc1)C(=O)N[C@@H](Cc1ccccc1)C(=O)OCc1ccccc1 [P9L, N-(Bn)succinyl-L-Phe-L-Val-L-Phe–OBn]	> 50 µM	–	> 50 µM	–
CC(ON1C(C)(C)CCCC1(C)C)c1ccc(NC(=O)[C@@H](Cc2ccccc2)NC(=O)[C@H](NC(=O)[C@@H](Cc2ccccc2)NC(=O)OC(C)(C)C)C(C)C)cc1 (some centres unmarked) [A3D]	–	–	> 50 µM	IC50 [1, 7]: > 50 µM
CC(C)[C@@H](NC(=O)[C@H](N)Cc1ccccc1)C(=O)N[C@H](Cc1ccccc1)C(=O)O [P11D] (H-[dF]-[dV]-[dF]-OH; N-terminus and C-terminus assumed)	–	–	> 50 µM	–
CC(ON1C(C)(C)CCCC1(C)C)c1ccc(NC(=O)[C@H](Cc2ccccc2)NC(=O)[C@@H](NC(=O)[C@H](Cc2ccccc2)NC(=O)CCC(=O)OCc2ccccc2)C(C)C)cc1 (some centres unmarked) [A6L]	–	> 50 µM	–	IC50 [1, 7]: 7 µM; Selectivity Index CC50/IC50 [1]: >6.9; IC50 [1, 8]: 7.2 µM
CCc1ccc(NC(=O)[C@H](Cc2ccccc2)NC(=O)[C@@H](NC(=O)[C@H](Cc2ccccc2)NC(=O)OC(C)(C)C)C(C)C)cc1 [P21L]	> 50 µM	> 50 µM	–	–
CC(ON(C(C)(C)C)C(C)(C)C)c1ccc(NC(=O)[C@@H](Cc2ccccc2)NC(=O)[C@@H](NC(=O)[C@H](Cc2ccccc2)NC(=O)OC(C)(C)C)C(C)C)cc1 (stereo partly drawn) [A8DL]	–	–	> 50 µM	IC50 [1, 7]: 0.87 ± 0.04 µM; Selectivity Index CC50/IC50 [1]: >57; activation energy Ea ([4]; in t-BuPh): 28.51 kcal/mol; activation energy Ea ([4]; in water/n-PrOH 1/1 v/v): 28.3 kcal/mol
CCc1ccc(NC(=O)[C@@H](Cc2ccccc2)NC(=O)[C@H](NC(=O)[C@@H](Cc2ccccc2)NC(=O)OC(C)(C)C)C(C)C)cc1 [P21D]	> 50 µM	> 50 µM	–	–
CC(C)[C@H](NC(=O)[C@H](Cc1ccccc1)NC(=O)CCC(=O)OCc1ccccc1)C(=O)N[C@@H](Cc1ccccc1)C(=O)O [P12L]	> 10 µM	> 50 µM	–	–
CC(ON(C(C)(C)C)C(C)(C)C)c1ccc(NC(=O)[C@H](Cc2ccccc2)NC(=O)OC(C)(C)C)cc1 (some centres unmarked) [A9L]	–	–	–	activation energy Ea ([4]; in t-BuPh): 28.8 kcal/mol; activation energy Ea ([4]; in water/n-PrOH 1/1 v/v): 28.42 kcal/mol
CC(C)[C@@H](NC(=O)[C@@H](Cc1ccccc1)NC(=O)OC(C)(C)C)C(=O)N[C@H](Cc1ccccc1)C(=O)OCc1ccccc1 [P6D, Boc-D-Phe-D-Val-D-Phe–OBn] (Boc-[dF]-[dV]-[dF]-OBn)	> 50 µM	–	3.2 ± 0.2 µM	–
CC(ON1C(C)(C)CCCC1(C)C)c1ccc(NC(=O)[C@@H](Cc2ccccc2)NC(=O)[C@H](NC(=O)[C@H](N)Cc2ccccc2)C(C)C)cc1 (some centres unmarked) [A5D]	–	–	–	Selectivity Index CC50/IC50 [1]: 1.0; IC50 [1, 8]: 2.25 ± 0.17 µM
